The text below walks through data of BindingDB's records for patent US10266537 (St. Chuan University, 2019).

Structures are written as SMILES.

This experiment concerns the target Tyrosine-protein kinase ABL1 [T315I] (Homo sapiens, UniProt P00519, T315I). In words: Kinase Inhibition Assays.

For `C=CC(=O)N1CCC(n2nc(C#Cc3cc(C(=O)Nc4ccc(CN5CCN(C)CC5)c(C(F)(F)F)c4)ccc3C)c3c(N)ncnc32)CC1` [US10266537, Compound 121], the IC50 stood at 0.133 µM.

A word on the IC50: it is the concentration that inhibits the measured activity by half.
